pIC50, pKi: −log10 of the molar value. Where “and” joins values, the source holds several entries; their conditions need not be identical. Identical values can stand only once. Like-named read-outs stand apart in the source and are kept apart here.
Columns and labels:
Namalwa (Lymphoma) = experiment: Proliferation of Namalwa; type: cell-based; settings: for pIC50: read-out: IC50 Namalwa (Lymphoma)
Description: (§1) The diterpenoid compounds were tested in A549, a non-small cell lung cancer cell line harboring a K-Ras activating mutation. Briefly, A549 cells at a density of 1,000 cells/well were seeded in 96-well plates and incubated at 37° C. for 24 hours. A series of different concentrations of compound stocks (500×) were prepared by 3-fold serial dilution in DMSO. These compounds were further diluted in culture media and then added to cells so that the final DMSO concentration was not exceeding 0.25%. After 96 hours of incubation, 50 μL of CellTiter Glo reagent (Promega) was added to each well and luminescence was measured after 10 minutes using EnVision (PerkinElmer). Luminescence from cells treated with DMSO alone was set as Max and % of inhibition was calculated as follows: Inhibition %=(Max-Sample value)/Max×100. Data was analyzed using XL-fit software (ID Business Solutions Ltd.) and IC50, relative IC50, and % of top inhibition was calculated. Some of the compounds in this disclosure were very potent in blocking proliferation of A549 lung cancer cells at low nM range. In addition, potency of inhibiting A549 proliferation correlated well with its binding affinity to PKCs for this series of compounds. In other words, higher affinity binders had stronger inhibitory effects on A549 proliferation. This further support the notion that activation, rather than inhibition, of certain PKC isoforms is required to block proliferation of cancer cells, some of which may harbor K-Ras mutations. This is in sharp contrast to previous literature and common belief that inhibition of PKC is necessary to block cancer cell growth (Kang, 2014, New Journal of Science, 2014:1-36). Data presented here is in agreement with recent findings that many loss-of-function but not gain-of-function mutations of PKC isoforms have been identified in many human cancers (Antal et al., 2015, Cell, 160:489-502).
(§2) The compounds in this disclosure were tested for their potency in blocking proliferation of a few other cancer cells lines, including K-Ras mutant pancreatic cell lines Panc2.13 and KP-4, leukemia cell line HL-60, and lymphoma cell lines Namalwa and Mino. Similar procedures as in Example 67 were followed. Initial cell numbers seeded in 96-well plates were different for different cell lines: 3000 cells/well for Panc2.13; 800-1000 cells/well for KP-4; 5000 cells/well for HL-60; 5000-10000 cells/well for Namalwa and Mino. A ratio of (IC50 of K101)/(IC50 of compound) (data in parenthesis in Table 5) was used to normalize the compound potency from different assay batches to a common comparator K101.

HL-60 (Leukemia) = experiment: Proliferation of HL-60; type: cell-based; settings: for pIC50: Homo sapiens, HL-60, read-out: IC50 HL-60 (Leukemia)
Description: as §1, §2

A549 cell line = experiment: Proliferation of A549 (CellTiter Glo); type: cell-based; settings: Homo sapiens, read-out: IC50 μM (A549 Cell Line)
Description: as §1

[1] = test system: NFκB-driven transcription in HeLa-NFκB luciferase reporter cell line; experiment: NFκB luciferase reporter assay; settings: Homo sapiens, HeLa, 16 h, read-out: NFκB-luc HeLa cells EC50 (μM)
Mino (Lymphoma) = experiment: Proliferation of Mino; type: cell-based; settings: for pIC50: Homo sapiens, MINO, read-out: IC50 Mino (Lymphoma)
Description: as §1, §2

C1b domain of human PKCθ = molecular target: T1, C1b domain of human PKCθ (Homo sapiens, UniProt Q04759); experiment: biochemical; type: binding; settings: 3H-PDBu competition
T1 construct: Genes encoding C1b domains of human PKCα, δ, ε, θ, and PKD1 (PKCμ) were synthesized; made in house; host or cells: E. coli BL21(DE3)
T1 sequence (Q04759 231-281 limits assumed): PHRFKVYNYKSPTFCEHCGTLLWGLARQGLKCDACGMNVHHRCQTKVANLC
Description: (§3) Compounds described in this disclosure were tested for binding affinity to C1b domain of PKC isoforms. Compound binding affinity to C1b domain of PKC isoforms was derived from competitive binding assay using radioactive tracer ^3H-PDBu and recombinant GST-C1b or full-length of human PKC proteins based on modified procedures from Methods in Molecular Biology, vol.
(§4) Genes encoding C1b domains of human PKCα, δ, ε, θ, and PKD1 (PKCμ) were synthesized and inserted into pGEX-2TK or pGEX-4T1 vectors for expression and production of GST-C1b proteins in E. coli BL21(DE3) via IPTG induction. The target proteins were purified by glutathione sepharose 4B and followed by ion exchange chromatography if needed to achieve purity >70%. Aliquots of the purified proteins were stored at −80 degree for binding assay (storage buffer: 20 mM Tris pH 8.0, 200 mM NaCl, 10% glycerol, 1 mM DTT).
(§5) The plate was incubated at 37° C. on a shaker at 300 rpm for 10 minutes and then put on ice for 20 minutes. […] The bottom of the filter plate was sealed and 50 μL of MicroScint-20 (PerkinElmer) cocktail was added to each well. ^3H-PDBu trapped in each well was counted using PerkinElmer MicroBeta2 Reader. Data were analyzed using GraphPad Prism5 with the model “log(inhibitor) vs. response-variable slope” to fit the IC50, and then IC50 was transformed to Ki using Cheng-Prusoff equation: Ki=IC50/(1+added radio ligand/Kd). Kd is the binding affinity of each protein preparation to ^3H-PDBu, determined experimentally.

C1b domain of human PKCδ = molecular target: T2, C1b domain of human PKCδ (Homo sapiens, UniProt Q05655); experiment: biochemical; type: binding; settings: 3H-PDBu competition
T2 construct: Genes encoding C1b domains of human PKCα, δ, ε, θ, and PKD1 (PKCμ) were synthesized; made in house; host or cells: E. coli BL21(DE3)
T2 sequence (Q05655 230-280 limits assumed): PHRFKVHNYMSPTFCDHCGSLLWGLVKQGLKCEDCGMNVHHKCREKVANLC
Description: as §3, §4, §5

C1b domain of human PKCε = molecular target: T3, C1b domain of human PKCε (Homo sapiens, UniProt Q02156); experiment: biochemical; type: binding; settings: 3H-PDBu competition
T3 construct: Genes encoding C1b domains of human PKCα, δ, ε, θ, and PKD1 (PKCμ) were synthesized; made in house; host or cells: E. coli BL21(DE3)
T3 sequence (Q02156 242-292 limits assumed): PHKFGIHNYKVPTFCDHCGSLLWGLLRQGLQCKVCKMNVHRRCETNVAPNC
Description: as §3, §4, §5

Panc2.13 (Pancreatic) = experiment: Proliferation of Panc2.13; type: cell-based
Description: as §1, §2

KP-4 (Pancreatic) = experiment: Proliferation of KP-4; type: cell-based; settings: 96 h; read-out: IC50 KP-4 (Pancreatic)
Description: as §1, §2

CT26 tumors = experiment: CT26 tumor after single dose intratumoral treatment, H&E stain and CD31 IHC; type: in vivo, mouse; settings: for CD31 IHC (counts per mm^2) / H&E Necrotic tumor area (%): individual tumors
Description: Method. Each 6-8 weeks old female Balb/c mouse was implanted with 3×10^5 CT26 mouse colon cancer cells in one flank for tumor development. When the average tumor volume reached 95 mm^3, 21 mice were randomized into different groups and were treated via a single IT injection (20 uL) according to the group assignment (different dose and treatment duration) in the table below. Tumors were harvested at 1h, 7h, or 24h post IT injection, and then fixed and processed for paraffin embedding.
Paraffin blocks were sectioned into […] sections using Leica RM2235 microtome. One section was stained for Hematoxylin-Eosin (H&E) using Leica ST5020-CV5030 stainer integrated workstation according to the Manufacture's procedure. Photos were taken using Nikon DS-Ri2. Another section was processed for IHC staining with the CD31 antibody (BD, Cat #550274) at 1:10 dilution. The stained slides were scanned using Leica Aperio VERSA 8 and the images were analyzed using HALO image analysis software system (Indica Labs).

SMILES | ratio (IC50 of K101)/(IC50 of compound) Namalwa (Namalwa (Lymphoma)) | pIC50 (Namalwa (Lymphoma)) | ratio (IC50 of K101)/(IC50 of compound) HL-60 (HL-60 (Leukemia)) | pIC50 (HL-60 (Leukemia)) | IC50 (A549 cell line; A549, 96 h) [µM] | EC50 [1] [µM] | ratio (IC50 of K101)/(IC50 of compound) Mino (Mino (Lymphoma)) | pIC50 (Mino (Lymphoma)) | pKi (C1b domain of human PKCθ) | pKi (C1b domain of human PKCδ) | pKi (C1b domain of human PKCε) | other results
CC1=C[C@H]2[C@@]3(O)[C@H](C)C[C@]4(OC(=O)CCC5CCCC5)[C@H]([C@@H]3C=C(CO)C[C@]2(O)C1=O)C4(C)C | 1.73 | 7.22 to 7.52 | 9.23 | 7.22 to 7.52 | 0.03 to 0.06 | 0.06 to 0.1 | 11 | 8.00 to 9.00 | 7.52 to 8.00 |  |  | 
CC1=C[C@H]2[C@@]3(O)[C@H](C)C[C@]4(OC(=O)C5CC6(C5)CN(C(=O)OC(C)(C)C)C6)[C@H]([C@@H]3C=C(CO)C[C@]2(O)C1=O)C4(C)C |  |  |  |  | 0.1 to 0.2 |  |  |  | 7.52 to 8.00 | 7.52 to 8.00 |  | 
CC1=C[C@H]2[C@@]3(O)[C@H](C)C[C@]4(OC(=O)CC5CC6(C5)CN(C(=O)OC(C)(C)C)C6)[C@H]([C@@H]3C=C(CO)C[C@]2(O)C1=O)C4(C)C |  |  |  |  | 0.03 to 0.06 |  |  |  | 7.52 to 8.00 |  | 7.52 to 8.00 | 
CC1=C[C@H]2[C@@]3(O)[C@H](C)C[C@]4(OC(=O)/C=C/c5ccc(C(F)(F)F)cc5)[C@H]([C@@H]3C=C(CO)C[C@]2(O)C1=O)C4(C)C |  |  |  |  | 0.06 to 0.1 |  |  |  | 7.52 to 8.00 | 7.52 to 8.00 | 7.52 to 8.00 | 
CC1=C[C@H]2[C@@]3(O)[C@H](C)C[C@]4(OC(=O)[C@@H](N)Cc5ccc(C(F)(F)F)cc5)[C@H]([C@@H]3C=C(CO)C[C@]2(O)C1=O)C4(C)C | 1.68 | 7.22 to 7.52 | 6.43 | 7.22 to 7.52 | 0.06 to 0.1 | 0.06 to 0.1 | 6.2 | 7.52 to 8.00 |  |  |  | ratio (IC50 of K101)/(IC50 of compound) Panc2.13 (Panc2.13 (Pancreatic)): 6.79; pIC50 (Panc2.13 (Pancreatic); read-out: IC50 Panc2.13 (Pancreatic)): 6.70 to 7.00; pIC50 (KP-4 (Pancreatic)): 6.22 to 7.00
CC1=C[C@H]2[C@@]3(O)[C@H](C)C[C@]4(OC(=O)[C@H](N)CCCCCCc5ccccc5)[C@H]([C@@H]3C=C(COC(=O)[C@@H](N)C(C)C)C[C@]2(O)C1=O)C4(C)C |  |  |  |  |  |  |  |  |  |  |  | IC50 (A549 cell line; A549, 96 hours, CellTiter Glo): 0.03 to 0.06 µM; CD31 IHC (counts per mm^2) (CT26 tumors; 47.2 μg single IT, 24 h): 163 counts per mm^2 and 111 counts per mm^2; H&E Necrotic tumor area (%) (CT26 tumors; 47.2 μg single IT, 24 h): 40% and 70%; tumors with reduction of CD31 density (CT26 tumors; 47.2 μg, 7h): 2 out of 3; CD31 IHC (counts per mm^2) (CT26 tumors; 141.6 μg single IT, 24 h): 176 counts per mm^2 and 29 counts per mm^2 and 72 counts per mm^2; H&E Necrotic tumor area (%) (CT26 tumors; 141.6 μg single IT, 24 h): 80% (2×) and 90%; CD31 IHC (counts per mm^2) (CT26 tumors; 472 μg single IT, 1 h): 577 counts per mm^2 and 457 counts per mm^2 and 463 counts per mm^2; H&E Necrotic tumor area (%) (CT26 tumors; 472 μg single IT, 1 h): 5% and 3% and 0%; CD31 IHC (counts per mm^2) (CT26 tumors; 472 μg single IT, 7 h): 188 counts per mm^2 and 536 counts per mm^2 and 179 counts per mm^2; H&E Necrotic tumor area (%) (CT26 tumors; 472 μg single IT, 7 h): 10% and 0% and 25%; CD31 IHC (counts per mm^2) (CT26 tumors; 472 μg single IT, 24 h): 155 counts per mm^2 and 187 counts per mm^2 and 118 counts per mm^2; H&E Necrotic tumor area (%) (CT26 tumors; 472 μg single IT, 24 h): 40% and 30% and 90%; massive cell death in tumors (CT26 tumors; all three doses, 24h): up to 90%
